For one assay, the target named is PHGDH (Homo sapiens (Human), UniProt O43175). As to the kind of experiment: 3-Phosphoglycerate Dehydrogenase (PHGDH) Fluorescence Intensity Assay, run at two NAD/3-PG ratios: PHGDH_HIGH_NAD/3-PG (250 μM NAD/500 μM 3-PG) and PHGDH_500_NAD/3-PG (500 μM NAD/500 μM 3-PG). The assay is classed as biochemical.
Another assay deals with MDA-MB-468. As to the kind of experiment: 13C3 Serine Assay MDA-MB-468 (13C3 serine levels by LC/MS/MS). The class given is cell-based. The conditions noted are these: Homo sapiens.
Setting [1] is: 250 μM NAD/500 μM 3-PG, read-out: IC50 (PHGDH_HIGH_NAD/3-PG).
Setting [2] is: MDA-MB-468 cells, 13C3 serine levels by LC/MS/MS, read-out: IC50 (13CSERINE).
The mark [3] stands for this setting: 500 μM NAD/500 μM 3-PG, read-out: IC50 (PHGDH_500_NAD/3-PG).
Where [4] appears, read: MDA-MB-468, read-out: IC50 (13CSERINE).

Structures are written as SMILES. Read-outs that look alike come from different tables or passages of the source.

Chain of PHGDH (O43175 2-533 limits assumed): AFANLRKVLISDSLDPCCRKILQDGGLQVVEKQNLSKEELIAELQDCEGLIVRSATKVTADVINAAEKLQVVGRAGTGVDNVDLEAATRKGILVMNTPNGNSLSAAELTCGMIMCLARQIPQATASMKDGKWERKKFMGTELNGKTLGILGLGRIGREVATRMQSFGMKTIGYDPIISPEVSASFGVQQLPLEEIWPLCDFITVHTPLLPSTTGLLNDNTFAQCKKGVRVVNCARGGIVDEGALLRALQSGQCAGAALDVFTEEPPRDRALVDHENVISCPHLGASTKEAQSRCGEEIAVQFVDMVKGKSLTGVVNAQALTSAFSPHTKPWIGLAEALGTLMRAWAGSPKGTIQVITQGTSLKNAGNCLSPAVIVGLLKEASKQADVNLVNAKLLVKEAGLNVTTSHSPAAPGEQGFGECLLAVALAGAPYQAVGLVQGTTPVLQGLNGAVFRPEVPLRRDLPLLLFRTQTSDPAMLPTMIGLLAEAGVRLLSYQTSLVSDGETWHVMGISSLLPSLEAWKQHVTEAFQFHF
Procedure for MDA-MB-468: Cells are cultivated in Medium I in a 75 mL flask.
Day 1: 5000 cells in 180 μL Medium I/well were seeded into a 96-well plate. Plates were incubated at 37° C. in a 5% CO2 incubator overnight.
Day 2: 10 mM DMSO stock from test compounds were serially pre-diluted with Medium I (See dilution scheme: for the first well 20 μL DMSO stock are diluted with 180 μL Medium I. From this 1000 μM solution further seven 1:3 (1+2) dilution are prepared with Medium I). 20 μL of these pre-dilutions are transferred in duplicates to the 96-well plate of Day 1. After incubation at 37° C. in a CO2 incubator for 1 hour the medium was removed, 100 μL PBS (tempered to room temperature) added and subsequently removed again.
180 μL Medium II were then added per well and 20 μL of serial dilutions of test compounds in Medium II (as described before) were transferred per well as above. After 180 minutes incubation at 37° C. in a CO2 incubator the medium was again cautiously removed.
After the addition of 100 μL methanol: H2O (80:20, v:v, pre-cooled to −80° C.) the plates were sealed immediately and frozen at −80° C.
At day of measurement plates were thawn, centrifuged and the supernatant evaporated. The samples were resuspended in 100 μl water for tandem mass spectrometry.
^13C3 serine levels were analyzed with LC/MS/MS using Multiple Reaction Monitoring (MRM).
IC50 values were computed from these values using a 4 parametric logistic model.
Source text for PHGDH: This assay is used to identify compounds which inhibit the enzymatic activity of PHGDH which catalyzes the reaction of 3-Phosphoglycerate (3-PG) and NAD to 3-Phosphohydroxypyruvate and NADH.
The produced NADH is used in a coupled reaction for Diaphorase mediated reduction of Resazurin to Resorufin which can be measured in a Fluorescence Intensity readout.
The full length version of PHGDH enzyme was expressed in E. coli with an N-terminal HIS-tag and a TEV cleavage site.
The 3-Phosphoglycerate substrate was purchased from Sigma. NAD, Diaphorase and Resazurin were purchased from Sigma Aldrich.
Compounds are dispensed onto assay plates (black, low volume, flat bottom 384 well, Corning) using an Access Labcyte Workstation with the Labcyte Echo 55× from a DMSO solution. For the chosen highest assay concentration of 100 μM, 150 nl of compound solution are transferred from a 10 mM DMSO compound stock solution. A series of 11 concentrations (10 1:5 steps) is transferred for each compound.
The assay has been performed at two different NAD/3-PG ratios (final assay concentrations):
Plates are kept at room temperature. After 240 minutes incubation time the fluorescence signal is measured in a PerkinElmer Envision HTS Multilabel Reader with an excitation wavelength at 530-560 nm and an emission wavelength at 590 nm.
Each plate contains negative controls (diluted DMSO instead of test compound; reaction as described with PHGDH protein) and positive controls (diluted DMSO instead of test compound; reaction as described with buffer instead of PHGDH protein). Negative and positive control values are used for normalization.
IC50 values are calculated and analyzed in the MEGALAB IC50 application using a 4 parametric logistic model.

Take `COC(=O)CS(=O)(=O)c1ccc([C@@H](C)NC(=O)c2cc3c(Cl)c(Cl)c(C)cc3n2C)cc1` [Example 01-001, methyl 2-{4-[(1R)-1-[(4,5-dichloro-1,6-dimethyl-1H-indol-2-yl)formamido]ethyl]benzenesulfonyl}acetate]: the figures for the IC50 on PHGDH (setting [1]) and with MDA-MB-468 (setting [2]) were 441 nM and 7 nM, respectively.

Regarding `CCOC(=O)CS(=O)(=O)c1ccc([C@@H](CO)NC(=O)c2cc3c(Cl)c(Cl)c(C)cc3n2C)cc1` [Example 01-002, ethyl 2-{4-[(1S)-1-[(4,5-dichloro-1,6-dimethyl-1H-indol-2-yl)formamido]-2-hydroxyethyl]benzenesulfonyl}acetate], the values for the IC50 on PHGDH (setting [1]), at PHGDH (setting [3]) and in the assay on MDA-MB-468 (setting [4]) were 169 nM, 258 nM and 2.9 nM, respectively.

In the case of `COC(=O)CS(=O)(=O)c1ccc([C@@H](C)NC(=O)c2cc3c(Cl)cc(-c4cnn(C)c4)cc3n2C)cc1` [Example 01-003, methyl 2-{4-[(1R)-1-{[4-chloro-1-methyl-6-(1-methyl-1H-pyrazol-4-yl)-1H-indol-2-yl]formamido}ethyl]benzenesulfonyl}acetate], the IC50 on PHGDH (setting [1]) worked out at 905 nM; in the assay on MDA-MB-468 (setting [2]) it was 109 nM.

With `CCOC(=O)CS(=O)(=O)c1ccc([C@@H](C)NC(=O)c2cc3c(Cl)cc(C)cc3n2C)cc1` [Example 01-004, ethyl 2-{4-[(1R)-1-[(4-chloro-1,6-dimethyl-1H-indol-2-yl)formamido]ethyl]benzenesulfonyl}acetate], the IC50 on PHGDH (setting [1]) amounted to 964 nM; in the assay with MDA-MB-468 (setting [2]) it was 29.3 nM.

Consider `CCOC(=O)CS(=O)(=O)c1ccc([C@@H](CO)NC(=O)c2cc3c(Cl)cc(C)cc3n2C)cc1` [Example 01-005, ethyl 2-{4-[(1S)-1-[(4-chloro-1,6-dimethyl-1H-indol-2-yl)formamido]-2-hydroxyethyl]benzenesulfonyl}acetate], for which the IC50 at PHGDH (setting [1]) is 223 nM; in the assay on MDA-MB-468 (setting [2]) it was 3.3 nM.

Turning to `COC(=O)CS(=O)(=O)c1ccc([C@@H](C)NC(=O)c2cc3c(Cl)c(Cl)c(C)nc3n2C)cc1` [Example 01-006, methyl 2-{4-[(1R)-1-({4,5-dichloro-1,6-dimethyl-1H-pyrrolo[2,3-b]pyridin-2-yl}formamido)ethyl]benzenesulfonyl}acetate], the results for the IC50 on PHGDH (setting [1]) and with MDA-MB-468 (setting [2]) were 485 nM and 88.8 nM, respectively.

Consider `COC(=O)CS(=O)(=O)c1ccc([C@@H](CO)NC(=O)c2cc3c(Cl)c(Cl)c(C)cc3n2C)cc1` [Example 01-007, methyl 2-{4-[(1S)-1-[(4,5-dichloro-1,6-dimethyl-1H-indol-2-yl)formamido]-2-hydroxyethyl]benzenesulfonyl}acetate], for which the values for the IC50 at PHGDH (setting [1]) and in the assay on MDA-MB-468 (setting [2]) were 121 nM and 5 nM, respectively.

Regarding `CCOC(=O)CS(=O)(=O)c1ccc([C@@H](C)NC(=O)c2cc3c(Cl)cc(-c4cnn(C)c4)cc3n2C)cc1` [Example 01-009, ethyl 2-{4-[(1R)-1-{[4-chloro-1-methyl-6-(1-methyl-1H-pyrazol-4-yl)-1H-indol-2-yl]formamido}ethyl]benzenesulfonyl}acetate], the IC50 on PHGDH (setting [1]) was 815 nM; in the assay on MDA-MB-468 (setting [2]) it was 44.1 nM.

Turning to `CC(C)OC(=O)CS(=O)(=O)c1ccc([C@@H](C)NC(=O)c2cc3c(Cl)cc(-c4cnn(C)c4)cc3n2C)cc1` [Example 01-011, propan-2-yl 2-{4-[(1R)-1-{[4-chloro-1-methyl-6-(1-methyl-1H-pyrazol-4-yl)-1H-indol-2-yl]formamido}ethyl]benzenesulfonyl}acetate], the values for the IC50 on PHGDH (setting [1]) and in the assay on MDA-MB-468 (setting [2]) were 1930 nM and 489 nM, respectively.

In the case of `COC(=O)CS(=O)(=O)c1ccc([C@@H](C)NC(=O)c2cc3c(Cl)cc(C)cc3n2C)cc1` [Example 01-012, methyl 2-{4-[(1R)-1-[(4-chloro-1,6-dimethyl-1H-indol-2-yl)formamido]ethyl]benzenesulfonyl}acetate], the values for the IC50 at PHGDH (setting [1]) and with MDA-MB-468 (setting [2]) were 412 nM and 52.5 nM, respectively.

For `COC(=O)CS(=O)(=O)c1ccc([C@@H](CO)NC(=O)c2cc3c(Cl)cc(C)cc3n2C)cc1` [Example 01-013, methyl 2-{4-[(1S)-1-[(4-chloro-1,6-dimethyl-1H-indol-2-yl)formamido]-2-hydroxyethyl]benzenesulfonyl}acetate], the IC50 amounted to 87 nM on PHGDH (setting [1]) and 8.3 nM with MDA-MB-468 (setting [4]).

On to `CCOC(=O)CS(=O)(=O)c1ccc([C@@H](C)NC(=O)c2cc3c(Cl)c(Cl)c(C)nc3n2C)cc1` [Example 01-016, ethyl 2-{4-[(1R)-1-({4,5-dichloro-1,6-dimethyl-1H-pyrrolo[2,3-b]pyridin-2-yl}formamido)ethyl]benzenesulfonyl}acetate], for which the values for the IC50 on PHGDH (setting [1]) and with MDA-MB-468 (setting [2]) were 1090 nM and 72.1 nM, respectively.

In the case of `Cc1cc2c(cc(C(=O)N[C@H](CO)c3ccc(S(=O)(=O)CC(=O)OC(C)C)cc3)n2C)c(Cl)c1Cl` [Example 01-021, propan-2-yl 2-{4-[(1S)-1-[(4,5-dichloro-1,6-dimethyl-1H-indol-2-yl)formamido]-2-hydroxyethyl]benzenesulfonyl}acetate], the IC50 at PHGDH (setting [1]) was determined as 463 nM; in the assay with MDA-MB-468 (setting [2]), 12.6 nM.

On to `COC(=O)CS(=O)(=O)c1ccc([C@@H](CO)NC(=O)c2cc3c(Cl)c(Cl)c(C)nc3n2C)cc1` [Example 01-023, methyl 2-{4-[(1S)-1-({4,5-dichloro-1,6-dimethyl-1H-pyrrolo[2,3-b]pyridin-2-yl}formamido)-2-hydroxyethyl]benzenesulfonyl}acetate], for which the IC50 amounted to 216 nM on PHGDH (setting [1]) and 0.8 nM with MDA-MB-468 (setting [2]).

As for `CC(C)OC(=O)CS(=O)(=O)c1ccc([C@@H](C)NC(=O)c2cc3cc(Cl)c(-c4cnn(CCN5CCOCC5)c4)cc3n2C)cc1` [Example 01-026, propan-2-yl 2-{4-[(1R)-1-[(5-chloro-1-methyl-6-{1-[2-(morpholin-4-yl)ethyl]-1H-pyrazol-4-yl}-1H-indol-2-yl)formamido]ethyl]benzenesulfonyl}acetate], the IC50 at PHGDH (setting [1]) was 1350 nM; in the assay with MDA-MB-468 (setting [2]), 35.9 nM.

As for `COC(=O)CS(=O)(=O)c1ccc([C@@H](C)NC(=O)c2cc3cc(Cl)c(-c4cnn(CCN5CCOCC5)c4)cc3n2C)cc1` [Example 01-027, methyl 2-{4-[(1R)-1-[(5-chloro-1-methyl-6-{1-[2-(morpholin-4-yl)ethyl]-1H-pyrazol-4-yl}-1H-indol-2-yl)formamido]ethyl]benzenesulfonyl}acetate], the IC50 came out at 248 nM at PHGDH (setting [1]) and 34.2 nM with MDA-MB-468 (setting [2]).

On to `CCOC(=O)CS(=O)(=O)c1ccc([C@@H](CO)NC(=O)c2cc3c(F)c(F)c(C)cc3n2C)cc1` [Example 01-028, ethyl 2-{4-[(1S)-1-[(4,5-difluoro-1,6-dimethyl-1H-indol-2-yl)formamido]-2-hydroxyethyl]benzenesulfonyl}acetate], for which the IC50 at PHGDH (setting [1]) is 267 nM; on PHGDH (setting [3]) it was 525 nM; in the assay on MDA-MB-468 (setting [2]) it was 7.3 nM.

Turning to `COC(=O)CS(=O)(=O)c1ccc([C@@H](C)NC(=O)c2cc(-c3ccc(F)cc3)nn2C)cc1` [Example 02-001, methyl 2-{4-[(1R)-1-{[3-(4-fluorophenyl)-1-methyl-1H-pyrazol-5-yl]formamido}ethyl]benzenesulfonyl}acetate], the IC50 was 1260 nM on PHGDH (setting [1]) and 32.8 nM in the assay with MDA-MB-468 (setting [2]).

As for `CCOC(=O)CS(=O)(=O)c1ccc([C@@H](C)NC(=O)c2cc(-c3ccc(F)cc3)nn2C)cc1` [Example 02-004, ethyl 2-{4-[(1R)-1-{[3-(4-fluorophenyl)-1-methyl-1H-pyrazol-5-yl]formamido}ethyl]benzenesulfonyl}acetate], the figures for the IC50 on PHGDH (setting [1]) and with MDA-MB-468 (setting [2]) were 3100 nM and 62.1 nM, respectively.

As for `CCOC(=O)CS(=O)(=O)c1ccc([C@@H](C)NC(=O)c2cc(-c3cccc4cc[nH]c34)nn2C)cc1` [Example 02-005, ethyl 2-{4-[(1R)-1-{[3-(1H-indol-7-yl)-1-methyl-1H-pyrazol-5-yl]formamido}ethyl]benzenesulfonyl}acetate], the IC50 on PHGDH (setting [1]) worked out at 3000 nM; in the assay with MDA-MB-468 (setting [2]) it was 64.8 nM.

As to `COC(=O)CS(=O)(=O)c1ccc([C@@H](CO)NC(=O)c2cc(-c3ccccc3)nn2C)cc1` [Example 02-007, methyl 2-{4-[(1S)-2-hydroxy-1-[(1-methyl-3-phenyl-1H-pyrazol-5-yl)formamido]ethyl]benzenesulfonyl}acetate], the IC50 on PHGDH (setting [1]) turned out to be 4340 nM; with MDA-MB-468 (setting [2]), 167 nM.

Regarding `CC(C)OC(=O)CS(=O)(=O)c1ccc([C@@H](C)NC(=O)c2cc(-c3ccc(F)cc3)nn2C)cc1` [Example 02-008, propan-2-yl 2-{4-[(1R)-1-{[3-(4-fluorophenyl)-1-methyl-1H-pyrazol-5-yl]formamido}ethyl]benzenesulfonyl}acetate], the IC50 on PHGDH (setting [1]) came to 4840 nM; in the assay on MDA-MB-468 (setting [2]), 68.4 nM.

Turning to `COC(=O)CS(=O)(=O)c1ccc([C@@H](C)NC(=O)c2cc(-c3ccccc3)nn2C)cn1` [Example 02-010, methyl 2-({5-[(1R)-1-[(1-methyl-3-phenyl-1H-pyrazol-5-yl)formamido]ethyl]pyridin-2-yl}sulfonyl)acetate], the IC50 on PHGDH (setting [1]) was determined as 3690 nM; in the assay with MDA-MB-468 (setting [2]), 594 nM.

Consider `CC(C)OC(=O)CS(=O)(=O)c1ccc([C@@H](C)NC(=O)c2cc(-c3ccccc3)nn2C)cc1` [Example 02-011, propan-2-yl 2-{4-[(1R)-1-[(1-methyl-3-phenyl-1H-pyrazol-5-yl)formamido]ethyl]benzenesulfonyl}acetate], for which the values for the IC50 on PHGDH (setting [1]) and in the assay on MDA-MB-468 (setting [2]) were 6720 nM and 135 nM, respectively.

For `Cc1cc(Cl)c2cc(C(=O)N[C@H](C)c3ccc(S(=O)(=O)CC(=O)OCCOC(=O)CS(=O)(=O)c4ccc([C@@H](C)NC(=O)c5cc6c(Cl)cc(C)cc6n5C)cc4)cc3)n(C)c2c1` [Example 15-011, 2-[(2-{4-[(1R)-1-[(4-chloro-1,6-dimethyl-1H-indol-2-yl)formamido]ethyl]benzenesulfonyl}acetyl)oxy]ethyl 2-{4-[(1R)-1-[(4-chloro-1,6-dimethyl-1H-indol-2-yl)formamido]ethyl]benzenesulfonyl}acetate], the IC50 in the assay on MDA-MB-468 (setting [2]) is 249 nM.

Source of the values: US11304929B2, “Tosylacetate based compounds and derivatives thereof as PHGDH inhibitors” (priority 2017, dated 2022).
